Data from PubChem BioAssay AID1963833 (Molecular Pharmacology Branch, DTP, NCI, 2024).

Tested on: 883617-216-R-J1-PDC complex spheroid viability
Experiment: Anticancer human tumor 883617-216-R-J1-PDC patient-derived bladder carcinoma cell line growth inhibition [POLQ]
Conditions: for IC50: curve of first compound; for viability, T/C: stronger effect = lower value
Experimental: Multicellular complex tumor spheroid response to Polymerase (POL) inhibitors (novobiocin, ART-558, RP6685) in combination with a variety of drugs and investigational agents in selected tumor cell lines
The POL inhibitors (novobiocin, ART-558, and RP6685) were evaluated both individually and in combination with standard of care and investigational anticancer small molecules within a complex spheroid model of solid tumors. . Complex spheroids include a stromal component modeled by human endothelial cells (HUVEC) and fibroblasts modeled by human mesenchymal stem cells (MSCs). The concentration ranges selected for each drug and investigational agent were based upon clinically achievable concentrations if the clinical Cmax of the agent was known.
Compounds. The drugs and investigational agents: novobiocin (NSC847541), ART-558 (NSC835418), RP-6685 (NSC848927), peposertib (NSC802822), ceralasertib (NSC780249), elimusertib (NSC800525), camonsertib (NSC841442), AZD-1390 (NSC803789), olaparib (NSC753686), talazoparib (NSC767125), rucaparib (NSC756644), sotorasib (NSC818433), MRTX-1133 (NSC836407), SN-38 (NSC673596), topotecan (NSC609699), epotoside (NSC141540), doxorubicin (NSC123127), gemcitabine (NSC613327), 5-fluorouracil (NSC19893), paclitaxel (NSC125973), vemurafenib (NSC761431), MSA-2 (NSC828583), SN-011 (NSC837082), adavosertib (NSC754352), prexasertib (NSC758257), carboplatin (NSC241240) and oxaliplatin (NSC266046), were obtained from the National Cancer Institute (NCI) Developmental Therapeutics Program Chemical Repository (21). The FDA-approved anticancer drug set is available from the Developmental Therapeutics Program at https://dtp.cancer.gov/organization/dscb/obtaining/. […] The stock solutions were prepared in dimethyl sulfoxide (DMSO, Sigma-Aldrich, St. Louis, MO, cat. D2650), except for the platinum compounds which were prepared in saline (Quality Biological, Gaithersburg, MD, cat. 114-055-101), at 800-fold the tested concentration and stored at -70 degrees C prior to their use. All drugs and investigational agents were tested over a range starting from a high concentration at or near the clinical Cmax and decreasing in half-log increments. If the clinical Cmax for an agent had not been determined, the highest concentration tested was 10 microM, except for SN-38, which was tested at a high concentration of 1 microM.
Cell Culture. All cells were maintained in an incubator at 37 degrees C and 5% CO2 with 95% humidity. The PDC lines were cultured according to standard operating procedures established by the NCI PDMR (https://pdmr.cancer.gov). Table 3 of the manuscript, lists the cell lines along with the number of the three cell types plated to form the mct-spheroids and media for tumor cell growth. After thawing, all PDC lines, except 997537-175-T-J1-PDC and 415267-285-R-J2-PDC, were cultured in Matrigel-coated flasks prepared with a working solution of 1X Ham's F-12 nutrient mix, without supplementation (Thermo Fisher Scientific, cat. 11765054), 100 U/mL penicillin-streptomycin (Thermo Fisher Scientific, cat. 15140122), and 2.5% Matrigel (Corning Inc., Corning, NY, cat. 354248) for the first three passages. The two PDC lines 997537-175-T-J1-PDC and 415267-285-R-J2-PDC were cultured on uncoated flasks. The 857933-349-R-J2-PDC line was cultured in 6C/Colon 1B media containing advanced DMEM/F-12 (Thermo Fisher Scientific, cat. 12634028), 10 mM HEPES (Thermo Fisher Scientific, cat. 15630080), 1X GlutaMAX supplement (Thermo Fisher Scientific, cat. 35050061), 0.1 mg/mL primocin (InvivoGen, San Diego, CA, cat. ant-pm-2), 10% defined fetal bovine serum, heat inactivated (HyClone Laboratories Inc., Logan, UT, cat. SH30070.03HI), 50% L-WRN conditioned media (ATCC, cat. CRL-3276), 1.25 mM N-Acetyl-L-cysteine (Sigma-Aldrich, cat. A9165), 10 mM nicotinamide (Sigma-Aldrich, cat. N0636), 1X B-27 supplement (Thermo Fisher Scientific, cat. 17504044), 1X N-2 supplement (Thermo Fisher Scientific, cat. […]

[1] = second compound 0.0316 µM, first compound 0.0316 µM
[2] = second compound 0.0316 µM, first compound 0.1 µM
[3] = second compound 0.0316 µM, first compound 0.316 µM
[4] = second compound 0.0316 µM, first compound 1 µM
[5] = second compound 0.0316 µM, first compound 3.16 µM
[6] = second compound 0.0316 µM, first compound 10 µM
[7] = second compound 0.1 µM, first compound 0.0316 µM
[8] = second compound 0.1 µM, first compound 0.1 µM
[9] = second compound 0.1 µM, first compound 0.316 µM
[10] = second compound 0.1 µM, first compound 1 µM
[11] = second compound 0.1 µM, first compound 3.16 µM
[12] = second compound 0.1 µM, first compound 10 µM
[13] = second compound 0.316 µM, first compound 0.0316 µM
[14] = second compound 0.316 µM, first compound 0.1 µM
[15] = second compound 0.316 µM, first compound 0.316 µM
[16] = second compound 0.316 µM, first compound 1 µM
[17] = second compound 0.316 µM, first compound 3.16 µM
[18] = second compound 0.316 µM, first compound 10 µM
[19] = second compound 1 µM, first compound 0.0316 µM
[20] = second compound 1 µM, first compound 0.1 µM
[21] = second compound 1 µM, first compound 0.316 µM
[22] = second compound 1 µM, first compound 1 µM
[23] = second compound 1 µM, first compound 3.16 µM
[24] = second compound 1 µM, first compound 10 µM
[25] = second compound 3.16 µM, first compound 0.0316 µM
[26] = second compound 3.16 µM, first compound 0.1 µM
[27] = second compound 3.16 µM, first compound 0.316 µM
[28] = second compound 3.16 µM, first compound 1 µM
[29] = second compound 3.16 µM, first compound 3.16 µM
[30] = second compound 3.16 µM, first compound 10 µM
[31] = second compound 10 µM, first compound 0.0316 µM
[32] = second compound 10 µM, first compound 0.1 µM
[33] = second compound 10 µM, first compound 0.316 µM
[34] = second compound 10 µM, first compound 1 µM
[35] = second compound 10 µM, first compound 3.16 µM
[36] = second compound 10 µM, first compound 10 µM
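Further: spheroids exposed to compounds for seven days before readout.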
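Wherever viability, T/C is given: 100% = DMSO vehicle control viability.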

Compound: CCc1cc2c(N3CCc4c(cc(Cn5ccnc5)cc4-c4cn(C)nc4C(F)(F)F)C3=O)cc(C)nc2c(OC)n1 + Cc1cccc(N(C)C(=O)C2C(O)CCN2c2nc(C)cc(C(F)(F)F)c2C#N)c1
- IC50 (second compound 0.0316 µM): 7.4 µM
- IC50 (second compound 0.1 µM): 8.3 µM
- IC50 (second compound 0.316 µM): > 10 µM
- IC50 (second compound 1 µM): 7.69 µM
- IC50 (second compound 3.16 µM): > 10 µM
- IC50 (second compound 10 µM): 8.25 µM
- viability, T/C [1]: 87.4%
- viability, T/C [2]: 95.6%
- viability, T/C [3]: 91.7%
- viability, T/C [4]: 91.7%
- viability, T/C [5]: 72.8%
- viability, T/C [6]: 41.8%
- viability, T/C [7]: 86.1%
- viability, T/C [8]: 102%
- viability, T/C [9]: 94.5%
- viability, T/C [10]: 97.6%
- viability, T/C [11]: 72.8%
- viability, T/C [12]: 45.6%
- viability, T/C [13]: 81.3%
- viability, T/C [14]: 89.2%
- viability, T/C [15]: 98.8%
- viability, T/C [16]: 83.8%
- viability, T/C [17]: 69.9%
- viability, T/C [18]: 53%
- viability, T/C [19]: 89.1%
- viability, T/C [20]: 88.3%
- viability, T/C [21]: 106%
- viability, T/C [22]: 92.5%
- viability, T/C [23]: 71.1%
- viability, T/C [24]: 43.8%
- viability, T/C [25]: 99.8%
- viability, T/C [26]: 94.4%
- viability, T/C [27]: 102%
- viability, T/C [28]: 84.8%
- viability, T/C [29]: 74.6%
- viability, T/C [30]: 58.3%
- viability, T/C [31]: 107%
- viability, T/C [32]: 110%
- viability, T/C [33]: 93%
- viability, T/C [34]: 95.3%
- viability, T/C [35]: 69.9%
- viability, T/C [36]: 45.9%

Compound: CNCc1ccc(-c2[nH]c3cc(F)cc4c3c2CCNC4=O)cc1 + Nc1ccc(C#CCN(C(=O)Cc2ncc(C(F)(F)F)cc2C(F)(F)F)c2ccc(F)cc2)nn1
- IC50 (second compound 0.0316 µM): > 10 µM
- IC50 (second compound 0.1 µM): > 10 µM
- IC50 (second compound 0.316 µM): > 10 µM
- IC50 (second compound 1 µM): > 10 µM
- IC50 (second compound 3.16 µM): > 10 µM
- IC50 (second compound 10 µM): > 10 µM
- viability, T/C [1]: 93.8%
- viability, T/C [2]: 86.4%
- viability, T/C [3]: 83.8%
- viability, T/C [4]: 101%
- viability, T/C [5]: 110%
- viability, T/C [6]: 92.1%
- viability, T/C [7]: 96.9%
- viability, T/C [8]: 79.8%
- viability, T/C [9]: 96.8%
- viability, T/C [10]: 107%
- viability, T/C [11]: 102%
- viability, T/C [12]: 95.2%
- viability, T/C [13]: 104%
- viability, T/C [14]: 81.3%
- viability, T/C [15]: 88.4%
- viability, T/C [16]: 96.8%
- viability, T/C [17]: 104%
- viability, T/C [18]: 89.8%
- viability, T/C [19]: 95.5%
- viability, T/C [20]: 105%
- viability, T/C [21]: 106%
- viability, T/C [22]: 113%
- viability, T/C [23]: 104%
- viability, T/C [24]: 76.1%
- viability, T/C [25]: 92.4%
- viability, T/C [26]: 102%
- viability, T/C [27]: 91.7%
- viability, T/C [28]: 103%
- viability, T/C [29]: 102%
- viability, T/C [30]: 98.1%
- viability, T/C [31]: 116%
- viability, T/C [32]: 107%
- viability, T/C [33]: 120%
- viability, T/C [34]: 101%
- viability, T/C [35]: 127%
- viability, T/C [36]: 102%
